# Values of other authors in patent US20040043030A1, “Polymeric delivery systems” (Immunomedics, Inc., priority 2001, published 2004).
# Tests used:
# [1] = biological target: T1, human beta-D-glucuronidase (Homo sapiens, UniProt P08236); conditions: Arcamone, Cancer Res., 45:5995, 1985
# T1 sequence (P08236 23-651): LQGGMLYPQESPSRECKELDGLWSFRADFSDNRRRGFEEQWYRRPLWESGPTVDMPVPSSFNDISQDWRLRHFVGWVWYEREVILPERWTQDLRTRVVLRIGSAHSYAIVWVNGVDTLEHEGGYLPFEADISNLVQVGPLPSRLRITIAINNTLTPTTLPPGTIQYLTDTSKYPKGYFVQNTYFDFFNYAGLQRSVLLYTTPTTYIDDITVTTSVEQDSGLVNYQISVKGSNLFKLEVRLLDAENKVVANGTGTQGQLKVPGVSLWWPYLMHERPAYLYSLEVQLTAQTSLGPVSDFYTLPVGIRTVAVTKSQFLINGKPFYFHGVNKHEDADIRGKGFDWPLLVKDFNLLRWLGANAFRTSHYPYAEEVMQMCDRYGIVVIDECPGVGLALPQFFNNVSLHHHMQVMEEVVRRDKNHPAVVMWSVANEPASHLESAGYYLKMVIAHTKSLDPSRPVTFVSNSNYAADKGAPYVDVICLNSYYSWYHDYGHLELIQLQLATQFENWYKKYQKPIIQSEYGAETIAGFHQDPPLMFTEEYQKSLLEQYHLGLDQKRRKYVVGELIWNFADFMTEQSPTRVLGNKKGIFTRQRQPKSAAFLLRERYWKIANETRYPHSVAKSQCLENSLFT
# tumor cells = conditions: relative to doxorubicin
Compound,substrate for human beta-D-glucuronidase [1],more toxic to tumor cells than doxorubicin itself (tumor cells)
COc1cccc2c1C(=O)c1c(O)c3c(c(O)c1C2=O)C[C@@](O)(C(=O)CO)C[C@@H]3O[C@H]1C[C@H](N)[C@@H](O)[C@H](C)O1 [epirubicin],substrate,
"COc1cccc2c1C(=O)c1c(O)c3c(c(O)c1C2=O)C[C@@](O)(C(=O)CO)C[C@@H]3O[C@H]1C[C@H](N2C=CCC2)[C@H](O)[C@H](C)O1 [Example 2-PDOX, 2-pyrrolinodoxorubicin]",,100-1000
